Test results from patent US10238761B1, “Method and an integrated device for an area decontamination process” (NANOMIST SYSTEMS, LLC, priority 2013, dated 2019).
Where two headings read alike, the source gives them in different places.

System: G. Stearothermophilus
Description: Tests were conducted in a 36 m^3 room without carpet (i.e., with tiled floor) and also in a 110 m^3 room with wall-to-wall carpet and configured to simulate a larger room with an attached bathroom with a door opening. Biological indicator (BI) test disks inoculated with 4-log, 5-log and 6-log populations of G. Stearothermophilus prepared by Mesa Labs were used.
BI test disks were placed at various locations within the room and doors and windows and other ventilation to the room was closed. Room temperature was not intentionally controlled, but was maintained at between about 22° C. and 26° C. The test area was pre-conditioned to a relative humidity of about 50%. A predetermined amount of biocide, a 35% hydrogen peroxide vapor, was rapidly injected into the room, with the rate of injection being about 50 g per minute or producing about 17.5 g of HP vapor per minute. The “inactivation time” or time from the initiation of the biocide injection through the residence time was a total of about 10 minutes. The room was then aerated until the concentration of biocide dropped to about 1 ppm. The overall cycle time was then calculated as the time for biocide injection, biocide contact or inactivation time, and the aeration time.

Measured: Kill Efficiency

OO [35% HP solution, hydrogen peroxide]
4-log: Test A: 36-m^3 room, tile, injected mass 0.6 g/m^3, HP mass 22 g, injection rate 11.4 g/min, injection time 1.8 min, residence time 8.2 min
5-log: Test 3: 36 m^3 room, injected mass 2.4 g/m^3, HP mass 86.4 g, injection time 12.7 min, injection rate 6.8 g/min (0.19 g/min/m3) of HP | Test 7: 36 m^3 room, injected mass 2 g/m^3, HP mass 72 g, injection time 12 min, injection rate 6.0 g/min (0.17 g/min/m3) of HP | Test 9: 36 m^3 room, injected mass 2 g/m^3, HP mass 72.7 g, injection time 9.6 min, injection rate 7.6 g/min (0.21 g/min/m3) of HP | Test 11: 36 m^3 room, injected mass 2.2 g/m^3, HP mass 79.6 g, injection time 13 min, injection rate 6.1 g/min (0.17 g/min/m3) of HP | Test B: 36-m^3 room, tile, injected mass 0.7 g/m^3, HP mass 26 g, injection rate 11.0 g/min, injection time 2.4 min, residence time 7.6 min | Test D: 100-m^3 room, carpet, second doorway with non-line-of-sight BI, injected mass 0.8 g/m^3, HP mass 91 g, injection rate 13.0 g/min, injection time 7.0 min, residence time 3.0 min
6-log: Test 4: 36 m^3 room, injected mass 2.4 g/m^3, HP mass 86.4 g, injection time 8.3 min, injection rate 10.4 g/min (0.29 g/min/m3) of HP | Test 8: 36 m^3 room, injected mass 2 g/m^3, HP mass 72 g, injection time 6.5 min, injection rate 11.1 g/min (0.31 g/min/m3) of HP | Test 10: 36 m^3 room, injected mass 2 g/m^3, HP mass 73.1 g, injection time 6.5 min, injection rate 11.2 g/min (0.31 g/min/m3) of HP | Test 12: 36 m^3 room, injected mass 2.1 g/m^3, HP mass 74.9 g, injection time 4.3 min, injection rate 17.4 g/min (0.48 g/min/m3) of HP | Test C: 36-m^3 room, tile, injected mass 1.7 g/m^3, HP mass 59 g, injection rate 12.3 g/min, injection time 4.8 min, residence time 5.2 min | Test E: 100-m^3 room, carpet, second doorway with non-line-of-sight BI, injected mass 1.8 g/m^3, HP mass 201 g, injection rate 21.1 g/min, injection time 9.5 min, residence time 0.5 min
